Source: ChEMBL document CHEMBL5528022, “Discovery of a brain-permeable bromodomain and extra terminal domain (BET) inhibitor with selectivity for BD1 for the treatment of multiple sclerosis” (Eur J Med Chem, 2024)
pIC50, pKd: −log10 of the molar value. In brackets after ≈: the same amount, converted by molar mass. Activity calls are given as the source filed them. The calls are words filed in the database; no cut-off is given here.

Legend:
[1] = molecular target: Bromodomain testis-specific protein (Homo sapiens, UniProt Q58F21); assay: Inhibition of BRDT BD1 (unknown origin) incubated for 15 mins by HTRF method
[2] = Mean residence time in Sprague-Dawley rat at 5 mg/kg, iv measured upto 25 hrs by LC-MS/MS analysis; assay type: ADME, organism-based; details: in vivo
[3] = Toxicity in C57BL/6 mouse model of experimental autoimmune encephalomyelitis assessed as body weight loss at 30 to 60 mg/kg, ip administered 6 days post immunization and measured every 3 days for 28 days post immunization; assay type: organism-based; details: in vivo, 528 h, dose 30-60 mg/kg, time 22 day
[4] = test system: Mus musculus; assay: Anti-inflammatory activity in complete Freund's adjuvant/MOG (35 to 55 residues)/pertussis toxin-induced experimental autoimmune encephalomyelitis C57BL/6 mouse model assessed as reduction in clinical scores at 30 to 60 mg/kg, ip qd administered 6 days post immunization and measured every 3 days for 28 days post immunization; assay type: functional, organism-based; details: dose 30-60 mg/kg, time 22.0 day
[5] = molecular target: T1, Bromodomain-containing protein 4 (Homo sapiens, UniProt O60885); assay: Binding affinity to BRD4 BD1 (unknown origin) expressed in Escherichia coli BL21 (DE3) at 1:1 protein:compound ratio by MST assay
[6] = Selectivity ratio of IC50 for inhibition of BRDT BD2 (unknown origin) to IC50 for inhibition of BRDT BD1 (unknown origin)
[7] = test system: Mus musculus; assay: Anti-inflammatory activity in complete Freund's adjuvant/MOG (35 to 55 residues)/pertussis toxin-induced experimental autoimmune encephalomyelitis C57BL/6 mouse model assessed as appearance of normal myelin structure at 30 to 60 mg/kg, ip qd administered 6 days post immunization and measured every 3 days for 28 days post immunization by Luxol fast blue staining based bright field fluorescence microscopic analysis; assay type: functional, organism-based; details: dose 30-60 mg/kg, time 22.0 day
[8] = molecular target: T1, Bromodomain-containing protein 4; assay: Binding affinity to BRD4 BD2 (unknown origin) assessed as change in enthalpy by ITC method
[9] = test system: Microglia; assay: Antiinflammatory activity against LPS induced neonatal rat cerebral cortex microglia by immunofluorescence assay; assay type: functional, cell-based
[10] = molecular target: T1, Bromodomain-containing protein 4; assay: Binding affinity to BRD4 BD1 (unknown origin) assessed as change in enthalpy by ITC method
[11] = Unbound drug level in ICR mouse brain incubated for 5 hrs by equilibrium dialysis method; assay type: ADME, tissue-based
[12] = Tmax in C57BL/6 mouse spinal cord at 5 mg/kg, iv measured upto 25 hrs by LC-MS/MS analysis; assay type: ADME, organism-based
[13] = Tmax in C57BL/6 mouse brain at 5 mg/kg, iv measured upto 25 hrs by LC-MS/MS analysis; assay type: ADME, organism-based
[14] = molecular target: T1, Bromodomain-containing protein 4; assay: Inhibition of BRD4 BD1 (unknown origin) incubated for 15 mins by HTRF method
[15] = Selectivity ratio of IC50 for inhibition of BRD3 BD2 (unknown origin) to IC50 for inhibition of BRD3 BD1 (unknown origin)
[16] = Selectivity ratio of Kd for binding affinity to BRD4 BD2 (unknown origin) by MST assay to Kd for binding affinity to BRD4 BD1 (unknown origin) by MST assay
[17] = Tmax in Sprague-Dawley rat at 25 mg/kg, po measured upto 25 hrs by LC-MS/MS analysis; assay type: ADME, organism-based; details: in vivo
[18] = Bioavailability in Sprague-Dawley rat at 25 mg/kg, ip measured upto 25 hrs by LC-MS/MS analysis; assay type: ADME, organism-based; details: in vivo
[19] = Half life in Sprague-Dawley rat at 25 mg/kg, po measured upto 25 hrs by LC-MS/MS analysis; assay type: ADME, organism-based; details: in vivo
[20] = Mean residence time in Sprague-Dawley rat at 25 mg/kg, po measured upto 25 hrs by LC-MS/MS analysis; assay type: ADME, organism-based; details: in vivo
[21] = molecular target: T1, Bromodomain-containing protein 4; assay: Binding affinity to BRD4 BD2 (unknown origin) assessed as change in entropy by ITC method
[22] = Cmax in C57BL/6 mouse brain at 5 mg/kg, iv measured upto 25 hrs by LC-MS/MS analysis; assay type: ADME, organism-based
[23] = Half life in Sprague-Dawley rat at 5 mg/kg, iv measured upto 25 hrs by LC-MS/MS analysis; assay type: ADME, organism-based; details: in vivo
[24] = test system: Mus musculus; assay: Anti-inflammatory activity in complete Freund's adjuvant/MOG (35 to 55 residues)/pertussis toxin-induced experimental autoimmune encephalomyelitis C57BL/6 mouse model assessed as reduction in TNF-alpha level at 30 to 60 mg/kg, ip qd administered 6 days post immunization and measured every 3 days for 28 days post immunization; assay type: functional, organism-based; details: dose 30-60 mg/kg, time 22.0 day
[25] = Cmax in Sprague-Dawley rat at 25 mg/kg, po measured upto 25 hrs by LC-MS/MS analysis; assay type: ADME, organism-based; details: in vivo
[26] = Selectivity ratio of IC50 for inhibition of BRD2 BD2 (unknown origin) to IC50 for inhibition of BRD2 BD1 (unknown origin)
[27] = molecular target: T1, Bromodomain-containing protein 4; assay: Inhibition of BRD4 BD2 (unknown origin) incubated for 15 mins by HTRF method
[28] = Solubility in water by HPLC analysis; assay type: physicochemical
[29] = Tmax in Sprague-Dawley rat at 25 mg/kg, ip measured upto 25 hrs by LC-MS/MS analysis; assay type: ADME, organism-based; details: in vivo
[30] = Cmax in Sprague-Dawley rat at 5 mg/kg, iv measured upto 25 hrs by LC-MS/MS analysis; assay type: ADME, organism-based; details: in vivo
[31] = Stability in rat liver microsomes assessed as half life; assay type: ADME, Microsome
[32] = molecular target: T1, Bromodomain-containing protein 4; assay: Binding affinity to BRD4 BD2 (unknown origin) expressed in Escherichia coli BL21 (DE3) at 1:1 protein:compound ratio by MST assay
[33] = molecular target: T2, Bromodomain-containing protein 2 (Homo sapiens, UniProt P25440); assay: Inhibition of BRD2 BD2 (unknown origin) incubated for 15 mins by HTRF method
T2 sequence (P25440 whole entry): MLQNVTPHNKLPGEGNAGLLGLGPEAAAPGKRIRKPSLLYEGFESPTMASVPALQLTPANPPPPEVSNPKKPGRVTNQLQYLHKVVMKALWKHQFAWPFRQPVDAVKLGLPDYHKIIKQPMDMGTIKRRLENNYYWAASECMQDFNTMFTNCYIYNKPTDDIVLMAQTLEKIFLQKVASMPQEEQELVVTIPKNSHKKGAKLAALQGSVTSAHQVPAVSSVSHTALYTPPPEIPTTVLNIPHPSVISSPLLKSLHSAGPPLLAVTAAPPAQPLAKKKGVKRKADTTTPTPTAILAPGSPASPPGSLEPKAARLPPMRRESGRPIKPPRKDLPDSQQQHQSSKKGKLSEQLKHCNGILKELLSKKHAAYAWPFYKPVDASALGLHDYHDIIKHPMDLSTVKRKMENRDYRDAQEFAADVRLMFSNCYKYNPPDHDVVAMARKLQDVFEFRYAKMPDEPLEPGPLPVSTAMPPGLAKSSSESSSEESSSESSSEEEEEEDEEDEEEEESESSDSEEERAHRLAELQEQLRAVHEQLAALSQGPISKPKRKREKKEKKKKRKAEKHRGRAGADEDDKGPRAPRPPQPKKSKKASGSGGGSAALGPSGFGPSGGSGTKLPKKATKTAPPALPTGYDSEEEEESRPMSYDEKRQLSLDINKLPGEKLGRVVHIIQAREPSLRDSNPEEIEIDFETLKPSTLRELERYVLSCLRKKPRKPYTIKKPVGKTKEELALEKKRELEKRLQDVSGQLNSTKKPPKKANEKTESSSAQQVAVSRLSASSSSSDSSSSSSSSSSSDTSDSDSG

[34] = molecular target: T1, Bromodomain-containing protein 4; assay: Binding affinity to BRD4 BD1 (unknown origin) assessed as change in gibbs free energy by ITC method
[35] = Cmax in C57BL/6 mouse blood at 5 mg/kg, iv measured upto 25 hrs by LC-MS/MS analysis; assay type: ADME, organism-based
[36] = molecular target: T2, Bromodomain-containing protein 2; assay: Inhibition of BRD2 BD1 (unknown origin) incubated for 15 mins by HTRF method
[37] = Oral bioavailability in Sprague-Dawley rat at 25 mg/kg measured upto 25 hrs by LC-MS/MS analysis; assay type: ADME, organism-based; details: in vivo
[38] = Half life in Sprague-Dawley rat at 25 mg/kg, ip measured upto 25 hrs by LC-MS/MS analysis; assay type: ADME, organism-based; details: in vivo
[39] = Cmax in Sprague-Dawley rat at 25 mg/kg, ip measured upto 25 hrs by LC-MS/MS analysis; assay type: ADME, organism-based; details: in vivo
[40] = Mean residence time in Sprague-Dawley rat at 25 mg/kg, ip measured upto 25 hrs by LC-MS/MS analysis; assay type: ADME, organism-based; details: in vivo
[41] = molecular target: T1, Bromodomain-containing protein 4; assay: Binding affinity to BRD4 BD1 (unknown origin) expressed in Escherichia coli BL21 (DE3) by ITC assay
[42] = molecular target: Bromodomain-containing protein 3 (Homo sapiens, UniProt Q15059); assay: Inhibition of BRD3 BD1 (unknown origin) incubated for 15 mins by HTRF method
Chain of Bromodomain-containing protein 3 (Q15059 whole entry): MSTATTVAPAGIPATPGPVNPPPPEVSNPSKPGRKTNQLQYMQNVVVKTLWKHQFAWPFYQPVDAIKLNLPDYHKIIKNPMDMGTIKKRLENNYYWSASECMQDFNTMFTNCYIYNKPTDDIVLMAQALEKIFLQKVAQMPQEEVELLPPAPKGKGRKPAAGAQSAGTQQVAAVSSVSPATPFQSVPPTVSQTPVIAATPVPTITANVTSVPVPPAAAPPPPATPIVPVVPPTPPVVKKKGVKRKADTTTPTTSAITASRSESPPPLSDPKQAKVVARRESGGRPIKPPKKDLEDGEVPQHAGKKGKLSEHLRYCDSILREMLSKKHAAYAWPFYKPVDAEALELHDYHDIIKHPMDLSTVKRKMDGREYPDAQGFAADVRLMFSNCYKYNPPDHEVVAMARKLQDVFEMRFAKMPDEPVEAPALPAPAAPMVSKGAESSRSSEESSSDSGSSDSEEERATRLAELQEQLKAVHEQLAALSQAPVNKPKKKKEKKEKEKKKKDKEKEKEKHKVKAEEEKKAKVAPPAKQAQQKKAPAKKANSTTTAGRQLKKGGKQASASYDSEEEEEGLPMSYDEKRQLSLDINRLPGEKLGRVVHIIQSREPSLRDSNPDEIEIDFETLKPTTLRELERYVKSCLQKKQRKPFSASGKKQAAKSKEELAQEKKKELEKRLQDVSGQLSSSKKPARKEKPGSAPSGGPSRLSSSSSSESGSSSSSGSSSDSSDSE

[43] = molecular target: T1, Bromodomain-containing protein 4; assay: Binding affinity to BRD4 BD2 (unknown origin) expressed in Escherichia coli BL21 (DE3) by ITC assay

Question: Which results are given for Cc1nn(CC2CC2)c(C)c1-c1cncc(-c2ccnc3nc[nH]c23)c1?
Answer: pIC50 [1]: 5.32; MRT [2]: 4.46 h; Activity [3]: Non-Toxic; Activity [4]: Active; pKd [5]: 6.64; Ratio IC50 [6]: 0.6; Activity [7]: Active; deltaH [8]: -5.84 kcal/mol; Activity [9]: Active; deltaH [10]: -15.6 kcal/mol; fraction unbound at 5 h [11]: 0.979; Tmax [12]: 1 h; Tmax [13]: 1 h; pIC50 [14]: 6.75; Ratio IC50 [15]: 11; Selectivity ratio [16]: 60; Tmax [17]: 0.25 h; bioavailability [18]: 121%; half-life [19]: 6.31 h; MRT [20]: 8.93 h; TdeltaS [21]: -0.533 kcal/mol; Cmax [22]: 7.91 µM; half-life [23]: 3.56 h; Activity [24]: Active; Cmax [25]: 7.15 µM; Ratio IC50 [26]: 4; pIC50 [27]: 5.32; solubility [28]: 760 µg/mL (≈ 2210 µM); Tmax [29]: 1 h; Cmax [30]: 17.2 µM; half-life [31]: 3.7 h; pKd [32]: 4.85; pIC50 [33]: 5.68; deltaG [34]: -8.55 kcal/mol; Cmax [35]: 17.2 µM; pIC50 [36]: 6.30; bioavailability [37]: 22%; half-life [38]: 3.53 h; Cmax [39]: 89.4 µM; MRT [40]: 1.74 h; pKd [41]: 6.27; pIC50 [42]: 6.74; pKd [43]: 4.68
